Source: patent publication US6180767A, “Peptide nucleic acid conjugates” (Thomas Jefferson University, priority 1997, dated 2001)
Where no end group is shown, it is not given here.

How the values were obtained:
[1] = tested on: P6 cells (murine Balb/c3T3 cells transfected with human IGF1R gene); experiment: Cellular uptake of fluoresceinated compounds, confocal fluorescence microscopy; format: cell-based; conditions: 1 μM, 4 hours at 37° C., serum-free DMEM
Procedure: P6 cells, which are murine Balb/c3T3 cells transfected with human insulin-like growth factor receptor (IGF1R) gene, overexpress IGF1R. The cells were plated on LAB TEK 8 well tissue culture "CHAMBER SLIDES" from Nunc, Inc., Naperville, Ill. in 10% FBS/DMEM at a concentration of 20,000 cells/chamber. The cells were allowed to attach and grow for 24 hours in a humidified cell incubator with 5% CO2 at 37° C. The attached cells were then washed with serum-free DMEM and PBS. The cells were incubated for 4 hours at 37° C. with 1 μM of the fluoresceinated PNA-peptide (H-Gly-SEQ ID NO:5/SEQ ID NO: 1) or fluoresceinyl-PNA (H-Gly-SEQ ID NO:5-CONH2) in serum-free DMEM. Human Jurkat cells, which have very low copies of IGF1R (Lal et al., Leukemia Res. 17, 31-35, 1983) were used as a negative control. The Jurkat cells were grown in 10% FBS/RPMI. The Jurkat cells were treated in the same manner as the P6 cells, except that necessary modifications were made in handling the cells as they grow in suspension. […]
The fixed slides were analyzed under laser confocal fluorescence and phase contrast microscopy to observe the cellular uptake of the fluorescent oligomers. […] This is an advantage over conventional fluorescence microscopy, which cannot differentiate between signals inside and outside of the cells.

[2] = tested on: tumor cell lines dependent on IGFR1; conditions: Pietrzkowski et al., Cancer Res. 52, 6447-6451, 1992; cited from earlier work
[3] = target: IGF1-R (Homo sapiens, UniProt P08069); conditions: Pietrzkowski et al., Cancer Res. 52, 6447-6451, 1992; cited from earlier work
Sequence of IGF1-R (P08069 31-736 limits assumed): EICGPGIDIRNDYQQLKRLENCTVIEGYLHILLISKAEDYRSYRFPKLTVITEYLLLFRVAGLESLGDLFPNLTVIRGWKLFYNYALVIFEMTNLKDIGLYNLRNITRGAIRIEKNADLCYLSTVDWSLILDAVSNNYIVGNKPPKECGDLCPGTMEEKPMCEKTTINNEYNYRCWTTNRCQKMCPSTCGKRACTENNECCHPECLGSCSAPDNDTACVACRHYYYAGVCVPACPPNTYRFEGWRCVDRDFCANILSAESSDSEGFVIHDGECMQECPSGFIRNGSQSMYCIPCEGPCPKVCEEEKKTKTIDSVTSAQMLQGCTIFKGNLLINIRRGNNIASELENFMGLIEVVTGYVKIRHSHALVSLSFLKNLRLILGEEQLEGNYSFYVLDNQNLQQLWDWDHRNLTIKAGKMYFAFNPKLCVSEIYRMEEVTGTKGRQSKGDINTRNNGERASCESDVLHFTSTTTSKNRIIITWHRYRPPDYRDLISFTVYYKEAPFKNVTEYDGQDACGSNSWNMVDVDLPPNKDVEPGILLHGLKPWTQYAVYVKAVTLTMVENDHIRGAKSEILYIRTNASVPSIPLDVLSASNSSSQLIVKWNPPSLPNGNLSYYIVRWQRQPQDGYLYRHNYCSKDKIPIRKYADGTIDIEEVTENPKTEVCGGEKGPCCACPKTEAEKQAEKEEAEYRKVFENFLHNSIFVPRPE
Sequence of IGF1-R (P08069 741-1367 partner limits assumed): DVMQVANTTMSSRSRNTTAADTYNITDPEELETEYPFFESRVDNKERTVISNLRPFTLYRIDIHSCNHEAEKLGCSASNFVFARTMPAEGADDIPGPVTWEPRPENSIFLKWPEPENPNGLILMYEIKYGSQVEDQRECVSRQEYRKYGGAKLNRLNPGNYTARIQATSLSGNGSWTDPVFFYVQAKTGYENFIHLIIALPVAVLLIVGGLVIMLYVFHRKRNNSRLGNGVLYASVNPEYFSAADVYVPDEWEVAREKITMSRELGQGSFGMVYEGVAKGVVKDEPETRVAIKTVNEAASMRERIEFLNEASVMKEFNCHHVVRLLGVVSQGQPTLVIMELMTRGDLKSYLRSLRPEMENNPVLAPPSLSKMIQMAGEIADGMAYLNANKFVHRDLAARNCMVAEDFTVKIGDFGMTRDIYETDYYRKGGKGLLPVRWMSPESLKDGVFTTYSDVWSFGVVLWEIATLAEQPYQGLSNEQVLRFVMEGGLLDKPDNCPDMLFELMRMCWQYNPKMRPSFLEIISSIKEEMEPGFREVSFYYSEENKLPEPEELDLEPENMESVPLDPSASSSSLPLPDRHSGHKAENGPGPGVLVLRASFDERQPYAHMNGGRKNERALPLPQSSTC

[4] = Serum stability of the PNA-peptide conjugate; format: in vitro ADME; conditions: 10% fetal bovine serum/PBS, 12 hours and 24 hours, reverse phase HPLC
Procedure: The title conjugate was incubated in 10% fetal bovine serum/PBS for 12 hours and 24 hours. After the incubation, one volume of acetonitrile was added to precipitated protein, which was pelleted by centrifugation. Free conjugate in the supernatant was dried under vacuo. It was then analyzed by reverse phase HPLC as described above.

[5] = tested on: P6 cells; experiment: Cellular uptake of [14C]PNA derivatives; format: cell-based, murine; conditions: 1 μM 14C-labeled derivatives, FIG. 6
Procedure: (§1) Uptake studies with radiolabeled PNA derivatives were carried out. P6 or Jurkat cells above were plated in 12.5 cm^2 flasks and grown for two days to 50-80% confluence, on the order of 10^6 cells per flask. The medium was then removed and replaced with fresh medium containing 1 μM of the various [^14 C]PNA derivatives, pre-warmed to 37° C.; background cells received medium with no [^14 C]PNA derivatives. After incubation for various times, attached cells were washed directly in the flasks using four washes--once with fresh medium, once with PBS, once with high salt/low pH buffer, and once with PBS. […]
(§2) After the final wash, the cells were lysed in 1 ml of 1% SDS in H2 O, and the samples were processed for total protein measurement and liquid scintillation counting. 50 μl of the lysate was allocated for total protein measurement, and ^14 C activity in the remaining lysate was measured by liquid scintillation counting, from which background counts were subtracted. […]
(§3) Control samples of varying confluence were trypsinized following the last wash, resuspended in PBS for cell counting, and then lysed to obtain total protein values. […] The curve was used to estimate cell counts from the total protein measurements of treated cells, and radioactivity counts were used to calculate pmoles of oligonucleotide using the specific activity of each labeled oligonucleotide. […]

[6] = tested on: Balb/c3T3 cells; experiment: Cellular uptake of [14C]PNA derivatives; format: cell-based, murine; conditions: Balb/c3T3 cells (low levels of IGF1R), 14C-labeled derivatives, FIG. 7
[7] = tested on: Jurkat cells; experiment: Cellular uptake of [14C]PNA derivatives; format: cell-based, Human; conditions: Jurkat cells (virtually no IGF1R), 1 μM 14C-labeled derivatives, FIG. 8
Procedure: as §1, §2, §3

With O=C1OC2(c3ccc(O)cc3Oc3cc(O)ccc32)c2ccccc21 [fluorescein] the “cellular uptake (fluorescence within the cells)” value [1] was “absence of uptake”.
In the case of “CSKAPKLPAAYC (cysteine pairing not given here) [SEQ ID NO:8]”, the “inhibition of proliferation/growth of tumor cell lines” value [2] is given as “inhibits the growth of certain cancer cell lines” and the “competition with the natural ligand for binding to IGF1-R” value [3] is given as “competes with the natural ligand for binding to IGF1-R”.
For “GCSKAPKLPAALC (cysteine pairing not given here) [SEQ ID NO:4]”, the “inhibition of proliferation/growth of tumor cell lines” value [2] is given as “inhibits the proliferation of tumor cell lines dependent on IGFR1”.
With “H-Gly-CCGCTTCCTTTC-Gly-Gly-Gly-Gly-D-Cys-D-Ser-D-Lys-D-Cys-NH2 [title PNA-peptide conjugate]” the “stability of the conjugate in serum” value [4] was “stability of the conjugate was confirmed”, the “uptake relative to control PNA or control PNA-peptide” value [5] was “five-fold more uptake” and the “uptake relative to the controls” value [6] was “four-fold excess”. For the same molecule, the “uptake relative to the controls” value [7] was “little preferential uptake”.
